Values joined by “and” are separate entries in the source; they are usually repeats but may differ in a detail not shown here. Identical values can stand only once. Toxic doses and inconclusive results are not listed. Rule for the calls: active = survival T/C of 150% or more; inactive = T/C below 125% in these data.
Tested on: P388 leukemia ip, CD2F1 mice, survival T/C
Assay: NCI In Vivo Anticancer Drug Screen. Data for tumor model P388 Leukemia (intraperitoneal) in CD2F1 (CDF1) mice
Details: endpoint: median survival time, higher = longer survival
How it was run: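 Mice carrying the transplanted tumor received test compound or vehicle. Survival was recorded in each group, and the value is the treated-group measurement divided by that of the vehicle-treated control group.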

[1] = dose: 50.0 mg/kg/injection, schedule: Q01DX009 (ip), vehicle: saline with Tween-80
[2] = dose: 100.0 mg/kg/injection, schedule: Q01DX009 (ip), vehicle: saline with Tween-80
[3] = dose: 50.0 mg/kg/injection, schedule: Q01DX009 (ip), vehicle: Klucel (hydroxypropylcellulose) (HPC)
[4] = dose: 60.0 mg/kg/injection, schedule: Q01DX005 (ip), vehicle: Klucel (hydroxypropylcellulose) (HPC)
[5] = dose: 60.0 mg/kg/injection, schedule: Q01DX005 (ip), vehicle: saline with Tween-80
[6] = dose: 120.0 mg/kg/injection, schedule: Q01DX005 (ip), vehicle: Klucel (hydroxypropylcellulose) (HPC)
[7] = dose: 120.0 mg/kg/injection, schedule: Q01DX005 (ip), vehicle: saline with Tween-80
[8] = dose: 240.0 mg/kg/injection, schedule: Q01DX005 (ip), vehicle: Klucel (hydroxypropylcellulose) (HPC)
[9] = dose: 240.0 mg/kg/injection, schedule: Q01DX005 (ip), vehicle: saline with Tween-80
[10] = dose: 200.0 mg/kg/injection, schedule: Q01DX009 (ip), vehicle: saline with Tween-80

Measured: T/C

O=C(CC(=O)C(F)(F)F)c1ccc(-c2ccccc2)cc1
inactive: dose: 25.0 mg/kg/injection, schedule: Q01DX009 (ip), vehicle: saline with Tween-80 110 % of control | [1] 116 % of control | [2] 111 % of control

Cn1c(C=O)cnc1[N+](=O)[O-]
inactive: dose: 12.5 mg/kg/injection, schedule: Q01DX009 (ip), vehicle: Klucel (hydroxypropylcellulose) (HPC) 108 % of control | dose: 25.0 mg/kg/injection, schedule: Q01DX009 (ip), vehicle: Klucel (hydroxypropylcellulose) (HPC) 111 % of control | [3] 111 % of control and 115 % of control

COc1c(C)cc(C)c(CBr)c1-c1c(CBr)c(C)cc(C)c1OC
inactive: dose: 100.0 mg/kg/injection, schedule: Q01DX001 (ip), vehicle: Klucel (hydroxypropylcellulose) (HPC) 95 % of control | dose: 200.0 mg/kg/injection, schedule: Q01DX001 (ip), vehicle: Klucel (hydroxypropylcellulose) (HPC) 93 % of control | dose: 400.0 mg/kg/injection, schedule: Q01DX001 (ip), vehicle: Klucel (hydroxypropylcellulose) (HPC) 88 % of control

Cc1cc(Cl)cc2c1OCOC2
inactive: dose: 50.0 mg/kg/injection, schedule: Q01DX009 (ip), vehicle: acetone 101 % of control | dose: 100.0 mg/kg/injection, schedule: Q01DX009 (ip), vehicle: acetone 102 % of control

COc1cc(C(=O)OC(C)CC2(c3ccccc3)C(=O)NC(=O)NC2=O)cc(OC)c1OC (stereo not drawn)
inactive: [1] 90 % of control | [2] 90 % of control

CCN1c2ccccc2C(Cl)(c2ccc(N(C)C)cc2)c2ccccc21
inactive: dose: 6.25 mg/kg/injection, schedule: Q01DX009 (ip), vehicle: saline 116 % of control | dose: 12.5 mg/kg/injection, schedule: Q01DX009 (ip), vehicle: saline 120 % of control

N[C@H]1CC[C@@H](C(=O)O)C1
inactive: dose: 50.0 mg/kg/injection, schedule: Q01DX005 (ip), vehicle: saline 109 % of control | dose: 100.0 mg/kg/injection, schedule: Q01DX005 (ip), vehicle: saline 101 % of control | dose: 200.0 mg/kg/injection, schedule: Q01DX005 (ip), vehicle: saline 108 % of control

O=C(O)CSc1ccc([N+](=O)[O-])cc1[N+](=O)[O-]
inactive: [4] 107 % of control | [5] 96 % of control | [6] 103 % of control | [7] 86 % of control | [8] 109 % of control | [9] 95 % of control

O=C1c2ccccc2C(=O)c2c(O)ccc3cccc1c23
inactive: dose: 50.0 mg/kg/injection, schedule: Q01DX005 (ip), vehicle: Klucel + Tween-80 92 % of control | dose: 100.0 mg/kg/injection, schedule: Q01DX005 (ip), vehicle: Klucel + Tween-80 92 % of control | dose: 200.0 mg/kg/injection, schedule: Q01DX005 (ip), vehicle: Klucel + Tween-80 92 % of control

O=C1c2ccccc2-c2c1c1ccccc1c(=O)n2-c1cccnc1
inactive: dose: 50.0 mg/kg/injection, schedule: Q01DX005 (ip), vehicle: saline with Tween-80 111 % of control | dose: 100.0 mg/kg/injection, schedule: Q01DX005 (ip), vehicle: saline with Tween-80 101 % of control | dose: 200.0 mg/kg/injection, schedule: Q01DX005 (ip), vehicle: saline with Tween-80 97 % of control

NC(N)=O.NC(N)=O.NC(N)=O.NC(N)=O.NC(N)=O.NC(N)=O.[Cr]
inactive: dose: 3.13 mg/kg/injection, schedule: Q04DX003 (ip), vehicle: saline 98 % of control | dose: 6.25 mg/kg/injection, schedule: Q04DX003 (ip), vehicle: saline 101 % of control | dose: 12.5 mg/kg/injection, schedule: Q04DX003 (ip), vehicle: saline 101 % of control and 102 % of control | dose: 25.0 mg/kg/injection, schedule: Q04DX003 (ip), vehicle: saline 103 % of control

C=C1CC2(CCCC3(C)CCC(C(C)C)CC32C)OC1=O (stereo not drawn)
inactive: dose: 100.0 mg/kg/injection, schedule: Q01DX001 (ip), vehicle: saline 101 % of control | dose: 200.0 mg/kg/injection, schedule: Q01DX001 (ip), vehicle: saline 106 % of control | dose: 400.0 mg/kg/injection, schedule: Q01DX001 (ip), vehicle: saline 110 % of control

c1ccc2c3[n+](ccc2c1)CCC[n+]1ccc2ccccc2c1-3
inactive: dose: 3.12 mg/kg/injection, schedule: Q01DX001 (ip), vehicle: saline 106 % of control | dose: 6.25 mg/kg/injection, schedule: Q01DX001 (ip), vehicle: saline 106 % of control | dose: 12.5 mg/kg/injection, schedule: Q01DX001 (ip), vehicle: saline 92 % of control

CC(C)(C)c1cc(C(c2ccccc2)(c2ccccc2)c2ccccc2)cc2c1OP(F)(c1ccccc1)(c1ccccc1)N2
inactive: [1] 91 % of control | [2] 95 % of control | [10] 91 % of control

CN(C)NCCCCCNN(C)C
inactive: dose: 50.0 mg/kg/injection, schedule: Q01DX005 (ip), vehicle: Klucel (hydroxypropylcellulose) (HPC) 100 % of control | dose: 100.0 mg/kg/injection, schedule: Q01DX005 (ip), vehicle: Klucel (hydroxypropylcellulose) (HPC) 102 % of control | dose: 200.0 mg/kg/injection, schedule: Q01DX005 (ip), vehicle: Klucel (hydroxypropylcellulose) (HPC) 102 % of control

C=CCc1cc(/C(CC)=C(/CC)c2ccc(OCCN(CC)CC)c(CC=C)c2)ccc1OCCN(CC)CC
inactive: dose: 50.0 mg/kg/injection, schedule: Q01DX005 (ip), vehicle: saline + Tween-80 + alcohol 99 % of control | dose: 100.0 mg/kg/injection, schedule: Q01DX005 (ip), vehicle: saline + Tween-80 + alcohol 93 % of control | dose: 200.0 mg/kg/injection, schedule: Q01DX005 (ip), vehicle: saline + Tween-80 + alcohol 104 % of control

O=C(O)CCC(=O)NNc1nc2ccccc2s1
inactive: [4] 102 % of control | [6] 104 % of control | [8] 97 % of control

CC(=O)C1C(=O)C(=O)N(Cc2ccccc2)C1=O (stereo not drawn)
inactive: [3] 96 % of control | dose: 100.0 mg/kg/injection, schedule: Q01DX009 (ip), vehicle: Klucel (hydroxypropylcellulose) (HPC) 114 % of control | dose: 200.0 mg/kg/injection, schedule: Q01DX009 (ip), vehicle: Klucel (hydroxypropylcellulose) (HPC) 100 % of control

Cc1ccc(N/N=C2\CC(=O)NC(=O)N2)cc1C
inactive: [1] 104 % of control | [2] 104 % of control | [10] 99 % of control

COc1cccc(C(Nc2nncs2)Nc2nncs2)c1
inactive: [5] 97 % of control | [7] 97 % of control | [9] 122 % of control

Cc1csc(=S)n1C
inactive: dose: 50.0 mg/kg/injection, schedule: Q01DX009 (ip), vehicle: saline 92 % of control | dose: 100.0 mg/kg/injection, schedule: Q01DX009 (ip), vehicle: saline 95 % of control

From PubChem BioAssay AID330 (DTP/NCI, 2004)
